According to US20250275540A1, “USE OF PROTOPORPHYRINOGEN OXIDASE” (BEIJING DABEINONG BIOTECHNOLOGY CO., LTD., priority 2022, published 2025):

Test system: transgenic maize plants
Test: Detection of the herbicide tolerance of the transgenic maize plants
Type: in vivo
Settings: for The grade of pesticide damage/plant: 0 / The grade of pesticide damage/plant: 1 / The grade of pesticide damage/plant: 2 / The grade of pesticide damage/plant: 3: 7 DAT
Source text: The transformed Arabidopsis thaliana T1 plants were initially selected using glufosinate herbicide. The Arabidopsis thaliana T1 plants (PPOA-01) into which the PPOA-01 nucleotide sequence was introduced, the Arabidopsis thaliana T1 plants (PPOB-01) into which the PPOB-01 nucleotide sequence was introduced, the Arabidopsis thaliana T1 plants (PPOC-01) into which the PPOC-01 nucleotide sequence was introduced, the Arabidopsis thaliana T1 plants (PPOD-01) into which the PPOD-01 nucleotide sequence was introduced, the Arabidopsis thaliana T1 plants (PPOE-01) into which the PPOE-01 nucleotide sequence was introduced, the Arabidopsis thaliana T1 plants (PPOF-01) into which the PPOF-01 nucleotide sequence was introduced, the Arabidopsis thaliana T1 plants (PPO-AP-01) into which the PPO-AP-01 nucleotide sequence was introduced, and the Arabidopsis thaliana T1 plants (control vector) into which the control vector was introduced, the wild-type Arabidopsis thaliana plants (CK) (with 24 plants being included in each genotype) (18 days after sowing) were sprayed with saflufenacil at three concentrations (25 g ai/ha (one-fold field concentration, 1×), 100 g ai/ha (four-fold field concentration, 4×), and 0 g ai/ha (water, 0×)), oxyfluorfen at three concentrations (180 g ai/ha (one-fold field concentration, 1×), 720 g ai/ha (four-fold field concentration, 4×), and 0 g ai/ha (water, 0×)), and flumioxazin at three concentrations (60 g ai/ha (one-fold field concentration, 1×), 240 g ai/ha (four-fold field concentration, 4×), and 0 g ai/ha (water, 0×) to determine the tolerance of Arabidopsis thaliana to the herbicides. After 7 days of spraying (7 DAT), the damage level of each plant caused by the herbicide was evaluated according to the average of the damage levels (%) of plants (the average of the damage levels (%) of plants=the injured leaf area/the total leaf area×100%), i.e., the grade of pesticide damage: grade 0 means that the growth status of plants is essentially consistent with those sprayed with the blank solvent (water); grade 1 means that the average of the damage levels of plants is less than 10%; grade 2 means that the average of the damage levels of plants is greater than 10%; and grade 3 means that the average of the damage levels of plants is 100%. The plants having a growth status falling within grades 0 and 1 are classified as highly resistant plants; those having a growth status falling within grade 2 are classified as poorly resistant plants; and those having a growth status falling within grade 3 are classified as non-resistant plants.
The maize plants into which the PPOA-02 nucleotide sequence was introduced, the maize plants into which the PPOB-02 nucleotide sequence was introduced, the maize plants into which the PPOC-02 nucleotide sequence was introduced, the maize plants into which the PPOD-02 nucleotide sequence was introduced, the maize plants into which the PPOE-02 nucleotide sequence was introduced, the maize plants into which the PPOF-02 nucleotide sequence was introduced, the maize plants into which the PPO-AP-02 nucleotide sequence was introduced, the maize plants (control vector) into which the control vector was introduced, and the wild-type maize plants (CK) (with 16 plants being included in each genotype) (18 days after sowing) were taken and sprayed with saflufenacil at three concentrations (50 g ai/ha (two-fold field concentration, 2×), 100 g ai/ha (four-fold field concentration, 4×), and 0 g ai/ha (water, 0×)), oxyfluorfen at three concentrations (360 g ai/ha (two-fold field concentration, 2×), 720 g ai/ha (four-fold field concentration, 4×), and 0 g ai/ha (water, 0×), and flumioxazin at three concentrations (120 g ai/ha (two-fold field concentration, 2×), 240 g ai/ha (four-fold field concentration, 4×), and 0 g ai/ha (water, 0×) to determine the tolerance of maize plants to the herbicides. […]

[1] = genotype Control vector, 50 g ai/ha
[2] = genotype Control vector, 100 g ai/ha
[3] = genotype PPO-AP-02, 100 g ai/ha

CC(C)N(C)S(=O)(=O)NC(=O)c1cc(-n2c(=O)cc(C(F)(F)F)n(C)c2=O)c(F)cc1Cl [saflufenacil, N′-[2-chloro-4-fluoro-5-(3-methyl-2,6-dioxo-4-(trifluoromethyl)-3,6-dihydro-1 (2H)-pyrimidine)benzoyl]-N-isopropyl-N-methylsulfamide]
15 plant: The grade of pesticide damage/plant: 3 [3]
16 plant: The grade of pesticide damage/plant: 3 (genotype CK, 50 g ai/ha) | The grade of pesticide damage/plant: 3 (genotype CK, 100 g ai/ha) | The grade of pesticide damage/plant: 3 [1] | The grade of pesticide damage/plant: 3 [2] | The grade of pesticide damage/plant: 0 (genotype PPOA-02, 50 g ai/ha) | The grade of pesticide damage/plant: 0 (genotype PPOA-02, 100 g ai/ha) | The grade of pesticide damage/plant: 0 (genotype PPOB-02, 50 g ai/ha) | The grade of pesticide damage/plant: 0 (genotype PPOB-02, 100 g ai/ha) | The grade of pesticide damage/plant: 0 (genotype PPOC-02, 50 g ai/ha) | The grade of pesticide damage/plant: 0 (genotype PPOC-02, 100 g ai/ha) | The grade of pesticide damage/plant: 0 (genotype PPOD-02, 50 g ai/ha) | The grade of pesticide damage/plant: 0 (genotype PPOD-02, 100 g ai/ha) | The grade of pesticide damage/plant: 0 (genotype PPOE-02, 50 g ai/ha) | The grade of pesticide damage/plant: 0 (genotype PPOE-02, 100 g ai/ha) | The grade of pesticide damage/plant: 0 (genotype PPOF-02, 50 g ai/ha)
9 plant: The grade of pesticide damage/plant: 3 (genotype PPO-AP-02, 50 g ai/ha)
about 56%: share of the plants that exhibited no tolerance (genotype PPO-AP-02, two-fold field concentration)
high-resistant tolerance: tolerance to the herbicide (in words) (genotypes PPOA-02 to PPOF-02, four-fold field concentration) | tolerance to the herbicide (in words) (genotypes PPOA-02 to PPOF-02, two-fold field concentration)
7 plant: The grade of pesticide damage/plant: 2 (genotype PPO-AP-02, 50 g ai/ha)
10 plant: The grade of pesticide damage/plant: 0 (genotype PPOF-02, 100 g ai/ha)
basically no tolerance: tolerance to the herbicide (in words) (genotype PPO-AP-02, four-fold field concentration)
0 plant: The grade of pesticide damage/plant: 0 (genotype CK, 50 g ai/ha) | The grade of pesticide damage/plant: 1 (genotype CK, 50 g ai/ha) | The grade of pesticide damage/plant: 2 (genotype CK, 50 g ai/ha) | The grade of pesticide damage/plant: 0 (genotype CK, 100 g ai/ha) | The grade of pesticide damage/plant: 1 (genotype CK, 100 g ai/ha) | The grade of pesticide damage/plant: 2 (genotype CK, 100 g ai/ha) | The grade of pesticide damage/plant: 0 [1] | The grade of pesticide damage/plant: 1 [1] | The grade of pesticide damage/plant: 2 [1] | The grade of pesticide damage/plant: 0 [2] | The grade of pesticide damage/plant: 1 [2] | The grade of pesticide damage/plant: 2 [2] | The grade of pesticide damage/plant: 0 (genotype PPO-AP-02, 50 g ai/ha) | The grade of pesticide damage/plant: 1 (genotype PPO-AP-02, 50 g ai/ha) | The grade of pesticide damage/plant: 0 [3] | The grade of pesticide damage/plant: 1 [3] | The grade of pesticide damage/plant: 1 (genotype PPOA-02, 50 g ai/ha) | The grade of pesticide damage/plant: 2 (genotype PPOA-02, 50 g ai/ha) | The grade of pesticide damage/plant: 3 (genotype PPOA-02, 50 g ai/ha) | The grade of pesticide damage/plant: 1 (genotype PPOA-02, 100 g ai/ha) | The grade of pesticide damage/plant: 2 (genotype PPOA-02, 100 g ai/ha) | The grade of pesticide damage/plant: 3 (genotype PPOA-02, 100 g ai/ha) | The grade of pesticide damage/plant: 1 (genotype PPOB-02, 50 g ai/ha) | The grade of pesticide damage/plant: 2 (genotype PPOB-02, 50 g ai/ha) | The grade of pesticide damage/plant: 3 (genotype PPOB-02, 50 g ai/ha) | The grade of pesticide damage/plant: 1 (genotype PPOB-02, 100 g ai/ha) | The grade of pesticide damage/plant: 2 (genotype PPOB-02, 100 g ai/ha) | The grade of pesticide damage/plant: 3 (genotype PPOB-02, 100 g ai/ha) | The grade of pesticide damage/plant: 1 (genotype PPOC-02, 50 g ai/ha) | The grade of pesticide damage/plant: 2 (genotype PPOC-02, 50 g ai/ha) | The grade of pesticide damage/plant: 3 (genotype PPOC-02, 50 g ai/ha) | The grade of pesticide damage/plant: 1 (genotype PPOC-02, 100 g ai/ha) | The grade of pesticide damage/plant: 2 (genotype PPOC-02, 100 g ai/ha) | The grade of pesticide damage/plant: 3 (genotype PPOC-02, 100 g ai/ha) | The grade of pesticide damage/plant: 1 (genotype PPOD-02, 50 g ai/ha) | The grade of pesticide damage/plant: 2 (genotype PPOD-02, 50 g ai/ha) | The grade of pesticide damage/plant: 3 (genotype PPOD-02, 50 g ai/ha) | The grade of pesticide damage/plant: 1 (genotype PPOD-02, 100 g ai/ha) | The grade of pesticide damage/plant: 2 (genotype PPOD-02, 100 g ai/ha) | The grade of pesticide damage/plant: 3 (genotype PPOD-02, 100 g ai/ha) | The grade of pesticide damage/plant: 1 (genotype PPOE-02, 50 g ai/ha) | The grade of pesticide damage/plant: 2 (genotype PPOE-02, 50 g ai/ha) | The grade of pesticide damage/plant: 3 (genotype PPOE-02, 50 g ai/ha) | The grade of pesticide damage/plant: 1 (genotype PPOE-02, 100 g ai/ha) | The grade of pesticide damage/plant: 2 (genotype PPOE-02, 100 g ai/ha) | The grade of pesticide damage/plant: 3 (genotype PPOE-02, 100 g ai/ha) | The grade of pesticide damage/plant: 1 (genotype PPOF-02, 50 g ai/ha) | The grade of pesticide damage/plant: 2 (genotype PPOF-02, 50 g ai/ha) | The grade of pesticide damage/plant: 3 (genotype PPOF-02, 50 g ai/ha) | The grade of pesticide damage/plant: 2 (genotype PPOF-02, 100 g ai/ha) | The grade of pesticide damage/plant: 3 (genotype PPOF-02, 100 g ai/ha)
6 plant: The grade of pesticide damage/plant: 1 (genotype PPOF-02, 100 g ai/ha)
1 plant: The grade of pesticide damage/plant: 2 [3]
